Experimental data as given in US7420001B2 (Wyeth, priority 2003, dated 2008).

Columns and labels:
[1] = target: T1, MMP-2 (Homo sapiens, UniProt P08253); test: In-vitro fluorescence assay of MMP-2 activity; type: biochemical; settings: recombinant human MMP-2; read-out: MMP-2 IC50
T1 construct: purchased Oncogene Research Products (Calbiochem) PF023
T1 sequence (P08253 110-660): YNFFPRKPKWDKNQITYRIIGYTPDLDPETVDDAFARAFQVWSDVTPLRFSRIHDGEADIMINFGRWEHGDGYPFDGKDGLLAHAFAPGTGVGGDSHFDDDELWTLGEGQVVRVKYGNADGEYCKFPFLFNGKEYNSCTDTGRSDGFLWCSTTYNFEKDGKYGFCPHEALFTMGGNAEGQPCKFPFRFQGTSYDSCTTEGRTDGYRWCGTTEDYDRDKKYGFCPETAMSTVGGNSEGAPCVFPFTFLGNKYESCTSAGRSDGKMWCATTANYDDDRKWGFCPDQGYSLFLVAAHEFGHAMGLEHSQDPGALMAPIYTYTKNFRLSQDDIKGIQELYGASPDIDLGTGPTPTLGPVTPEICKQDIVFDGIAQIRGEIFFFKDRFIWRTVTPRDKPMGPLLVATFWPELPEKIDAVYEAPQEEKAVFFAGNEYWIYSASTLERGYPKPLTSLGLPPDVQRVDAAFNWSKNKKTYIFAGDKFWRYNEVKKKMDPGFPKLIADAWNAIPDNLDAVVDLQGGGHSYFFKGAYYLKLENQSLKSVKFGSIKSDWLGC

[2] = target: T2, MMP-13 (Homo sapiens, UniProt P45452); test: In-vitro fluorescence assay of MMP-13 activity; type: biochemical; settings: recombinant human catalytic domain of MMP-13; read-out: MMP-13 IC50
T2 construct: made in house

Compound	IC50 [1] [µM]	IC50 [2] [µM]
COc1cccc2oc(C(=O)Nc3ccc(-c4ccc(S(=O)(=O)N[C@H](C(=O)O)C(C)C)cc4)cc3)cc12 [Example 11, N-[(4′-{[(4-methoxy-1-benzofuran-2-yl)carbonyl]amino}-1,1′-biphenyl-4-yl)sulfonyl]-L-valine]	0.016	0.0023
CC(C)[C@H](NS(=O)(=O)c1ccc(-c2ccc(NC(=O)c3cc4ccccc4s3)cc2)cc1)C(=O)O [Example 12, 4′-[(Benzo[β]thiophene-2-carbonyl)-amino]-biphenyl-4-sulfonyl-L-valine]	0.149	0.0062
CC(Oc1cccc2oc(C(=O)Nc3ccc(-c4ccc(S(=O)(=O)N[C@H](C(=O)O)C(C)C)cc4)cc3)cc12)C(=O)O (stereo partly drawn) [Example 14, 4′-{[4-(1-Carboxy-ethoxy)-benzofuran-2-carbonyl]-amino}-biphenyl-4-sulfonyl-L-valine]	0.916	0.011
NC(=O)C[C@H](NS(=O)(=O)c1ccc(-c2ccc(NC(=O)c3cc4ccccc4o3)cc2)cc1)C(=O)O [Example 15, N2-({4′-[(1-Benzofuran-2-ylcarbonyl)animo]-1,1′-biphenyl-4-yl}sulfonyl)-L-Asparagine]	0.01	0.0025
CC(C)C[C@H](NS(=O)(=O)c1ccc(-c2ccc(NC(=O)c3cc4ccccc4o3)cc2)cc1)C(=O)O [Example 18, N-({4′-[(1-Benzofuran-2-ylcarbonyl)amino]-1,1′-biphenyl-4-yl}sulfonyl)-L-leucine]	0.0084	0.0022
Cc1c(C(=O)Nc2ccc(-c3ccc(S(=O)(=O)N[C@H](C(=O)O)C(C)C)cc3)cc2)oc2cccc(CCCO)c12 [Example 27, L-2-(4′-{[4-(3-Hydroxy-propyl)-3-methyl-benzofuran-2-carbonyl]-amino}-biphenyl-4-sulfonylamino)-3-methyl-butyric acid]	4.41	0.0071
C#Cc1cccc2oc(C(=O)Nc3ccc(-c4ccc(S(=O)(=O)N[C@H](C(=O)O)C(C)C)cc4)cc3)c(C)c12 [Example 33, L-2-{4′-[(4-Ethynyl-3-methyl-benzofuran-2-carbonyl)-amino]-biphenyl-4-sulfonylamino}-3-methyl-butyric acid]	0.595	0.0061
Cc1c(C(=O)Nc2ccc(-c3ccc(S(=O)(=O)N[C@H](C(=O)O)C(C)O)cc3)nc2)oc2cccc(NS(C)(=O)=O)c12 (stereo partly drawn) [Example 38, L-3-Hydroxy-2-(4-{5-[(4-methanesulfonylamino-3-methyl-benzofuran-2-carbonyl)-amino]-pyridin-2-yl}-benzenesulfonylamino)-butyric acid]	8.89	0.028
Cc1c(C(=O)Nc2ccc(-c3ccc(S(=O)(=O)N[C@H](C(=O)O)C(C)C)cc3)nc2)oc2cccc(NS(C)(=O)=O)c12 [Example 39, L-2-(4-{5-[(4-Methanesulfonylamino-3-methyl-benzofuran-2-carbonyl)-amino]-pyridin-2-yl}-benzenesulfonylamino)-3-methyl-butyric acid]	7.5	0.03
Cc1c(C(=O)Nc2ccc(-c3ccc(S(=O)(=O)N[C@H](C(=O)O)C(C)C)cc3)nc2)oc2cccc(C#N)c12 [Example 40, L-2-(4-{5-[(4-Cyano-3-methyl-benzofuran-2-carbonyl)-amino]-pyridin-2-yl}-benzenesulfonylamino)-3-methyl-butyric acid]	2.84	0.0162

Second part, the compound after the results:

IC50 [1] [µM]	IC50 [2] [µM]	Compound
3	0.021	Cc1c(C(=O)Nc2ccc(-c3ccc(S(=O)(=O)N[C@H](C(=O)O)C(C)C)cc3)cc2)oc2cccc(C#CC3CC3)c12 [Example 23, 2-{4′-[(4-Cyclopropylethynyl-3-methyl-benzofuran-2-carbonyl)-amino]-biphenyl-4-sulfonylamino}-3-methyl-butyric acid]
8	0.024	Cc1c(C(=O)Nc2ccc(-c3ccc(S(=O)(=O)N[C@H](C(=O)O)C(C)C)cc3)cc2)oc2cccc(CCC3CC3)c12 [Example 24, L-2-(4′-{[4-(2-Cyclopropyl-ethyl)-3-methyl-benzofuran-2-carbonyl]-amino}-biphenyl-4-sulfonylamino)-3-methyl-butyric acid]
6.32	0.014	COC/C=C\c1cccc2oc(C(=O)Nc3ccc(-c4ccc(S(=O)(=O)N[C@H](C(=O)O)C(C)C)cc4)cc3)c(C)c12 [Example 25, L-2-(4′-{[4-(3-Methoxy-Z-propenyl)-3-methyl-benzofuran-2-carbonyl]-amino}-biphenyl-4-sulfonylamino)-3-methyl-butyric acid]
3.38	0.0062	Cc1c(C(=O)Nc2ccc(-c3ccc(S(=O)(=O)N[C@H](C(=O)O)C(C)C)cc3)cc2)oc2cccc(C#CCO)c12 [Example 26, L-2-(4′-{[4-(3-Hydroxy-prop-1-ynyl)-3-methyl-benzofuran-2-carbonyl]-amino}-biphenyl-4-sulfonylamino)-3-methyl-butyric acid]
6.64	0.047	Cc1c(C(=O)Nc2ccc(-c3ccc(S(=O)(=O)N[C@H](C(=O)O)C(C)C)cc3)cc2)oc2cccc(C#CCC(C)C)c12 [Example 28, L-3-Methyl-2-(4′-{[3-methyl-4-(4-methyl-pent-1-ynyl)-benzofuran-2-carbonyl]-amino}-biphenyl-4-sulfonylamino)-butyric acid]
9.32	0.037	Cc1c(C(=O)Nc2ccc(-c3ccc(S(=O)(=O)N[C@H](C(=O)O)C(C)C)cc3)cc2)oc2cccc(CCCC(C)C)c12 [Example 29, L-3-Methyl-2-(4′-{[3-methyl-4-(4-methyl-pentyl)-benzofuran-2-carbonyl]-amino}-biphenyl-4-sulfonylamino)-butyric acid]
3.15	0.021	Cc1c(C(=O)Nc2ccc(-c3ccc(S(=O)(=O)N[C@H](C(=O)O)C(C)C)cc3)cc2)oc2cccc(CCCN(C)C)c12 [Example 32, L-2-(4′-{[4-(3-Dimethylamino-propyl)-3-methyl-benzofuran-2-carbonyl]-animo}-biphenyl-4-sulfonylamino)-3-methyl-butyric acid]
2.5	0.152	Cc1c(C(=O)Nc2ccc(-c3ccc(S(=O)(=O)N[C@H](C(=O)O)C(C)C)cc3)cc2)oc2cccc(C#CC(C)(C)C)c12 [Example 34, L-2-(4′-{[4-(3,3-Dimethyl-but-1-ynyl)-3-methyl-benzofuran-2-carbonyl]-amino}-biphenyl-4-sulfonylamino)-3-methyl-butyric acid]
2.34	0.016	Cc1c(C(=O)Nc2ccc(-c3ccc(S(=O)(=O)N[C@H](C(=O)O)C(C)C)cc3)cc2)oc2cccc(N(C)S(C)(=O)=O)c12 [Example 37, L-2-(4′-{[4-(Methanesulfonyl-methyl-animo)-3-methyl-benzofuran-2-carbonyl]-amino}-biphenyl-4-sulfonylamino)-3-methyl-butyric acid]
1.46	0.0085	Cc1c(C(=O)Nc2ccc(-c3ccc(S(=O)(=O)N[C@@H](C(=O)O)C(C)C)cc3)cc2)oc2cccc(NS(C)(=O)=O)c12 [Example 41, D-2-{4-[(4-Methanesulfonylamino-3-methyl-benzofuran-2-carbonyl)-amino]-biphenyl-4-sulfonylamino}-3-methyl-butyric acid]
